These results are taken from PMC8900595 (Journal of medicinal chemistry, 2021).

Structures are written as SMILES.

For the experiment, the system named is H1N1 A/WSN/1933 virus. It is filed as cell-based, influenza A virus.

`CCN(c1ccccc1C)S(=O)(=O)c1cc(Cl)ccc1Cl` [compound 1, 2,5-dichloro-N-ethyl-N-(o-tolyl)-benzenesulfonamide]: the “concentration required for maximum virus inhibition (three logs) while maintaining enough virus production for passages” value is 0.5 μM.
